# Test results as given in publication PMC8848308 (Bioorganic & medicinal chemistry letters, 2020).
# Test system: Huh7 cells stably expressing DENV-3 replicon (strain D3MY05-34640)
# Test: Luciferase reporter replicon assay, DENV-3
# Assay type: cell-based
# Conditions: on moving the 3-F group to the ortho position (compared with the 3-F analogue)
smiles,measurement,value
"O=C1CC2(C(=O)Nc3ccc(Cl)cc32)c2cnn(Cc3ccc(Cl)c(F)c3)c2N1 (stereo not shown) [Compound 22, 5-Chloro-1’-(4-chloro-3-fluorobenzyl)-5’,7’-dihydrospiro[indoline-3,4’-pyrazolo[3,4-b]pyridine]-2,6’(1’H)-dione]",loss of potency against DENV-3,20 fold
